Values of other authors as cited in patent US12202853B2, “Epoxide polyene amphoteric macrolide and process for purifying natamycin” (DSM IP ASSETS B.V., priority 2018, dated 2025).
Read-outs that look alike come from different tables or passages of the source.

Substance: Natamycin
- solubility of natamycin in water (neutral pH): around 40 mg/L
- solubility of natamycin in water (neutral pH values, also printed as 40 ppm): around 0.04 g/L
